In patent US11059832B2, “HPK1 inhibitors and methods of using same” (University Health Network, priority 2015, dated 2021):

How the values were obtained:
[1] = target: T1, human HPK1 (MAP4K1) (Homo sapiens, UniProt Q92918); experiment: HPK1 inhibition assay (indirect ELISA); format: biochemical; conditions: GST-HPK1 0.6 nM, 12 μM ATP; read-out: IC50 Range HPK1
T1 construct: human HPK1 (aa 1-346); purchased Invitrogen PV6355
T1 sequence (Q92918 1-346): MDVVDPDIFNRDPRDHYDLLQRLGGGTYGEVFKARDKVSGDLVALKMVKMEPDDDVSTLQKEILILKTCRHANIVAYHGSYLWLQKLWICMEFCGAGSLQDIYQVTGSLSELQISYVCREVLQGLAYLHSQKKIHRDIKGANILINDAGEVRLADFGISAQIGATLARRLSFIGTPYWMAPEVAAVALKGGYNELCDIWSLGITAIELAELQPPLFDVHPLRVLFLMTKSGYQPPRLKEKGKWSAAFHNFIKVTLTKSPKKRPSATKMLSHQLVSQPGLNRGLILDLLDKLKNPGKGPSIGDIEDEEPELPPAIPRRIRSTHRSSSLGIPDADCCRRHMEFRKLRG
In short: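 GST-tagged human HPK1 (aa 1-346, 0.6 nM) phosphorylated MBP-coated wells with 12 μM ATP in MOPS pH 7.2/Mg2+ buffer for 30 min after 15-min compound preincubation; phospho-Thr detected by antibody ELISA with TMB, 450 nm. Tested at 10 μM or 10-point titration (typically 50-0.1 μM); IC50 by 4-parameter logistic fit.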

[2] = test system: ERK1/2 T202/Y204 phosphorylation in α-CD3 stimulated Jurkat E6.1 cells; experiment: In vitro phosphorylation assay, ERK1/2 T202/Y204 (immunoblot); format: cell-based; conditions: Homo sapiens, 4 h pretreatment, read-out: ERK1/2 T202/Y204 Phosphorylation Onset Inhibition
Description: (§1) Jurkat E6.1 cells were obtained from American Type Culture Collection (ATCC, Manassas, Va.), and maintained according to the supplier's instructions. Cells were washed three times and starved in RPMI 1640 medium supplemented with 0.5% fetal calf serum for 18 h at 37° C. Serum starved cells were pretreated with the indicated concentration of inhibitor for 4 hours before stimulation with 10 μg/ml α-CD3 antibody (BioLegend, Inc., San Diego, Calif.) for 10 min at 37° C. The cells were washed once in phosphate-buffered saline (pH 7.4) containing 10 mm sodium pyrophosphate, 10 mm sodium fluoride, 10 mm EDTA, and 1 mm sodium orthovanadate. Protein lysates were prepared using ice-cold radioimmunoprecipitation assay (RIPA) lysis buffer. A total of 100 μg of cell lysate was loaded onto Bis-Tris gels (Life Technologies, Carlsbad, Calif.) with full-range molecular weight marker as a size reference, and resolved by SDS-PAGE electrophoresis. Proteins were transferred to PVDF membrane (Millipore, Billerica, Mass.), blocked and probed with antibodies for phospho-SLP-76 (Ser376) (rabbit polyclonal #13177; Cell Signaling Technology Inc., Danvers, Mass.), SLP-76 (rabbit polyclonal #4958; Cell Signaling Technology Inc., Danvers, Mass.), phospho-ERK (mouse monoclonal sc-7383; Santa Cruz Biotechnology Inc., Santa Cruz, Calif.) and ERK1/2 (rabbit polyclonal 06-182; Millipore, Billerica, Mass.). Secondary antibodies were diluted 1 in 15,000 and incubated for 1 h at rt. Protein bands were visualized and quantified using Odyssey near infrared imager (LI-COR, Lincoln, Nebr.).
(§2) Table 2 below lists effects of representative compounds of the present invention against SLP-76 serine 376 phosphorylation and ERK1/2 T202/Y204 phosphorylation in α-CD3 stimulated Jurkat E6.1 cells.

[3] = target: T2, LCK (Homo sapiens, UniProt P06239); experiment: LCK inhibition, FRET based Z'-LYTE Kinase Assay; format: biochemical; conditions: 25 nM LCK, 180 μM ATP; read-out: IC50 Range Lck
T2 construct: purchased Invitrogen P3043
Description: (§3) FLT3 and LCK compound inhibition were determined using FRET based Z′-LYTE Kinase Assay Kit with Tyrosine 2 peptide as the substrate (Invitrogen cat #PV3191). […] The % inhibition values were determined according to the manufacturer's directions and IC50 values were obtained using a non-linear 4 point logistic curve fit (XLfit4, IDBS).

[4] = test system: SLP-76 serine 376 phosphorylation in α-CD3 stimulated Jurkat E6.1 cells; experiment: In vitro phosphorylation assay, SLP-76 Ser376 (immunoblot); format: cell-based; conditions: Homo sapiens, 4 h pretreatment, substantive = >75% inhibition as estimated by immunoblot analysis, read-out: SLP76 S376 Phosphorylation Onset-Substantive* Inhibition
Description: as §1, §2

[5] = target: T3, FLT3 (Homo sapiens, UniProt P36888); experiment: FLT3 inhibition, FRET based Z'-LYTE Kinase Assay; format: biochemical; conditions: 1 nM FLT3, 940 μM ATP; read-out: IC50 Range Flt3
T3 construct: purchased Invitrogen PV3182
T3 sequence (P36888 27-993): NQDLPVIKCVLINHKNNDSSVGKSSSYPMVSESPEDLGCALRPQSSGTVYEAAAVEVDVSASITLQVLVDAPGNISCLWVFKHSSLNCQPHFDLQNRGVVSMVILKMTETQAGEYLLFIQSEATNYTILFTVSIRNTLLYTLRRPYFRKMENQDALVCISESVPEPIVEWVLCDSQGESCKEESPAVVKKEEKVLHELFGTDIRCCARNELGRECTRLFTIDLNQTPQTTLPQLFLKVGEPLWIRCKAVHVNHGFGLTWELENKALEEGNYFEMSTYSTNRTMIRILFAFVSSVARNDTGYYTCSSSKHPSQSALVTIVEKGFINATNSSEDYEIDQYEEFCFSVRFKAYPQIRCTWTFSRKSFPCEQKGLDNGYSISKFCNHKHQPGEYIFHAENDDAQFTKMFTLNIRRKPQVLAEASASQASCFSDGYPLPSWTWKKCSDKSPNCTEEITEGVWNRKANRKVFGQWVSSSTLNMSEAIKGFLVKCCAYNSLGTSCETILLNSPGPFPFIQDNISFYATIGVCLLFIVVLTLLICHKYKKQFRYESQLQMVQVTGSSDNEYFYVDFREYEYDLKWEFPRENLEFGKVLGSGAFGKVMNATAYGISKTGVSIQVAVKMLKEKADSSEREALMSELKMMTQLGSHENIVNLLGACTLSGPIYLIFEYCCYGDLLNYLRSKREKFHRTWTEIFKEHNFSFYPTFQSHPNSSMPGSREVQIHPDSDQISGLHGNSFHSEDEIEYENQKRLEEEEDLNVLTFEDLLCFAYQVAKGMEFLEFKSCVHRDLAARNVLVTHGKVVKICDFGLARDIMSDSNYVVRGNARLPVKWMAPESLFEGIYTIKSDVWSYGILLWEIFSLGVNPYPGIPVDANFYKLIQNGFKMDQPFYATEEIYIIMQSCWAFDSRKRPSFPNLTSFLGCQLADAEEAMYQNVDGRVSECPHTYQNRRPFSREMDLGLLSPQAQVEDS
Description: as §3

T2 sequence (P06239 whole entry, species assumed): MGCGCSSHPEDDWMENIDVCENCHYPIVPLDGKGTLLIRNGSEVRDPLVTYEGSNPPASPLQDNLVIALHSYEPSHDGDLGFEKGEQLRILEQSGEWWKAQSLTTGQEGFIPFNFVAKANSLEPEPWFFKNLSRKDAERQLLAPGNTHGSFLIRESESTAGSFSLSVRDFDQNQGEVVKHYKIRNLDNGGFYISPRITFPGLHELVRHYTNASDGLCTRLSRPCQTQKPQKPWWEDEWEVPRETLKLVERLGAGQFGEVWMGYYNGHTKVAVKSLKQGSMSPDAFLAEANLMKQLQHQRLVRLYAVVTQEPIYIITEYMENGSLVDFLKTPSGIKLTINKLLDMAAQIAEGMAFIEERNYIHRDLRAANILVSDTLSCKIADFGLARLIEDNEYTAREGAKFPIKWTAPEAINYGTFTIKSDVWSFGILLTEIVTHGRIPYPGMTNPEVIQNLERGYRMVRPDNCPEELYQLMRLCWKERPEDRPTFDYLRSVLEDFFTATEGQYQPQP

Row | Structure (SMILES) | IC50 [1] [nM] | minimal effective concentration [2] [µM] | IC50 [3] [nM] | IC75 [4] [nM] | IC50 [5] [nM]
1 | CN1CCN(c2ccc3nc(-c4c(N[C@@H]5CCOC5)c5ccsc5[nH]c4=O)[nH]c3c2)CC1 [Example A10, (R)-5-(6-(4-methylpiperazin-1-yl)-1H-benzo[d]imidazol-2-yl)-4-((tetrahydrofuran-3-yl)amino)thieno[2,3-b]pyridin-6(7H)-one] | ≤ 50 | > 3 | 50 to 500 | 1000 to 3000 | ≤ 50
2 | CN1CCC(Nc2c(-c3nc4ccc(N5CCOCC5)cc4[nH]3)c(=O)[nH]c3sccc23)CC1 [Example A18, 4-((1-methylpiperidin-4-yl)amino)-5-(6-morpholino-1H-benzo[d]imidazol-2-yl)thieno[2,3-b]pyridin-6(7H)-one] | ≤ 50 | > 3 | 50 to 500 | 300 to 1000 | ≤ 50
3 | CN1CCN(c2ccc3nc(-c4c(N)c5c(N6CCNCC6)csc5[nH]c4=O)[nH]c3c2)CC1 [Example A21, 4-amino-5-(6-(4-methylpiperazin-1-yl)-1H-benzo[d]imidazol-2-yl)-3-(piperazin-1-yl)thieno[2,3-b]pyridin-6(7H)-one] | ≤ 50 | > 3 | > 500 | > 3000 | 50 to 500
4 | C[C@@H]1CN(c2ccc3nc(-c4c(NC5CCOCC5)c5sccc5[nH]c4=O)[nH]c3c2)C[C@H](C)N1C [Example A48, 7-((tetrahydro-2H-pyran-4-yl)amino)-6-(6-(3r,5s)-rel-3,4,5-trimethylpiperazin-1-yl)-1H-benzo[d]imidazol-2-yl)thieno[3,2-b]pyridin-5(4H)-one] | ≤ 50 | – | ≤ 50 | – | ≤ 50
5 | CN1CCN(c2ccc3nc(-c4c(NCc5cccnc5)c5sccc5[nH]c4=O)[nH]c3c2)CC1 [Example A52, 6-(6-(4-methylpiperazin-1-yl)-1H-benzo[d]imidazol-2-yl)-7-((pyridin-3-ylmethyl)amino)thieno[3,2-b]pyridin-5(4H)-one] | ≤ 50 | – | ≤ 50 | – | ≤ 50
6 | CN1CCN(c2ccc3nc(-c4c(NCc5ccccn5)c5sccc5[nH]c4=O)[nH]c3c2)CC1 [Example A53, 6-(6-(4-methylpiperazin-1-yl)-1H-benzo[d]imidazol-2-yl)-7-((pyridin-2-ylmethyl)amino)-thieno[3,2-b]pyridin-5(4H)-one] | ≤ 50 | – | ≤ 50 | – | ≤ 50
7 | CN1CCN(c2ccc3nc(-c4c(N[C@H]5CCNC[C@@H]5F)c5ccsc5[nH]c4=O)[nH]c3c2)CC1 [Example A54, 4-(((3S,4S)-3-fluoropiperidin-4-yl)amino)-5-(6-(4-methylpiperazin-1-yl)-1H-benzo[d]imidazol-2-yl)thieno[2,3-b]pyridin-6(7H)-one] | ≤ 50 | – | 50 to 500 | – | ≤ 50
8 | Cc1cc2[nH]c(-c3c(N)c4ccsc4[nH]c3=O)nc2cc1N1CCN(C)CC1 [Example A61, 4-amino-5-(6-methyl-5-(4-methylpiperazin-1-yl)-1H-benzo[d]imidazol-2-yl)thieno[2,3-b]pyridin-6(7H)-one] | ≤ 50 | – | 50 to 500 | – | ≤ 50
9 | Nc1c(-c2nc3ccc(N4CCNCC4)cc3[nH]2)c(=O)[nH]c2sccc12 [Example A64, 4-amino-5-(6-(piperazin-1-yl)-1H-benzo[d]imidazol-2-yl)thieno[2,3-b]pyridin-6(7H)-one] | ≤ 50 | – | 50 to 500 | – | ≤ 50
10 | Nc1c(-c2nc3ccc(N4CCN(C5COC5)CC4)cc3[nH]2)c(=O)[nH]c2sccc12 [Example A65, 4-amino-5-(6-(4-(oxetan-3-yl)piperazin-1-yl)-1H-benzo[d]imidazol-2-yl)thieno[2,3-b]pyridin-6(7H)-one] | ≤ 50 | – | 50 to 500 | – | ≤ 50
11 | CN1CCN(c2ccc3nc(-c4c(N[C@H]5CCC[C@@H]5O)c5ccsc5[nH]c4=O)[nH]c3c2)CC1 [Example A66, 4-(((1S,2S)-2-hydroxycyclopentyl)amino)-5-(6-(4-methylpiperazin-1-yl)-1H-benzo[d]imidazol-2-yl)thieno[2,3-b]pyridin-6(7H)-one] | ≤ 50 | – | ≤ 50 | – | ≤ 50
12 | CN1CCN(c2ccc3nc(-c4c(N[C@@H]5CCC[C@H]5O)c5ccsc5[nH]c4=O)[nH]c3c2)CC1 [Example A67, 4-(((1R,2R)-2-hydroxycyclopentyl)amino)-5-(6-(4-methylpiperazin-1-yl)-1H-benzo[d]imidazol-2-yl)thieno[2,3-b]pyridin-6(7H)-one] | ≤ 50 | – | 50 to 500 | – | ≤ 50
13 | CN1CCN(c2cc3[nH]c(-c4c(N)c5sccc5[nH]c4=O)nc3cc2F)CC1 [Example A68, 7-amino-6-(5-fluoro-6-(4-methylpiperazin-1-yl)-1H-benzo[d]imidazol-2-yl)thieno[3,2-b]pyridin-5(4H)-one] | ≤ 50 | – | ≤ 50 | – | ≤ 50
14 | CN1CCN(c2ccc3nc(-c4c(N[C@@H]5CCOC5)c5cscc5[nH]c4=O)[nH]c3c2)CC1 [Example A71, (R)-3-(6-(4-methylpiperazin-1-yl)-1H-benzo[d]imidazol-2-yl)-4-((tetrahydrofuran-3-yl)amino)thieno[3,4-b]pyridin-2(1H)-one] | ≤ 50 | – | ≤ 50 | – | ≤ 50
15 | O=c1[nH]c2sccc2c(N[C@H]2CCCC[C@H]2O)c1-c1nc2ccc(N3CCOCC3)cc2[nH]1 [Example A72, 4-(((1S,2R)-2-hydroxycyclohexyl)amino)-5-(6-morpholino-1H-benzo[d]imidazol-2-yl)thieno[2,3-b]pyridin-6(7H)-one] | ≤ 50 | – | > 500 | – | ≤ 50
